# Reference: patent US11076594B2, “Pyrazolone compound or salt thereof, preparation method therefor, herbicide composition and use thereof” (QINGDAO KINGAGROOT CHEMICAL COMPOUNDS CO., LTD., priority 2015, dated 2021)
# How the values were obtained:
# Type in all cases: in vivo
# Settings in all cases: post-emergence spray at 4-5 leaf stage, 250 g/ha active ingredient with 450 kg/ha water, rated after 3 weeks in greenhouse
# [1] = tested on: crab grass; experiment: weed control effect in post-emergence stage (Table 1); parameters: key: Level 10: completely dead; Level 9: above 95% growth control rate; Level 8: above 90% growth control rate; Level 7: above 80% growth control rate; Level 6: above 70% growth control rate; Level 5: above 60% growth control rate; Level 4: above 50% growth control rate; Level 3: above 20% growth control rate; Level 2: 5%-20% growth control rate; Level 1: below 5% growth control rate
# Description: (§1) The activity level standard of harmful plant destruction (i.e. growth control rate) is as follows: The above described growth control rate is fresh weight control rate. Monocotyledonous and dicotyledonous weed seeds and main crop seeds (i.e. wheat, corn, rice, soybean, cotton, oilseed, millet and sorghum.) were put into a plastic pot loaded with soil. Then covered with 0.5-2 cm soil, the seeds were allowed to grow in good greenhouse environment. The test plants were treated at 4-5 leaf stage 2-3 weeks after sowing. The test compounds of the invention were dissolved with acetone respectively, then added with 80 tween and diluted by certain amount of water to certain concentration. The solution was sprayed to the plants with a sprayer. Then the plants were cultured for 3 weeks in the greenhouse.
# [2] = tested on: Indian mallow; experiment: as above; parameters: key: Level 10: completely dead; Level 9: above 95% growth control rate; Level 8: above 90% growth control rate; Level 7: above 80% growth control rate; Level 6: above 70% growth control rate; Level 5: above 60% growth control rate; Level 4: above 50% growth control rate; Level 3: above 20% growth control rate; Level 2: 5%-20% growth control rate; Level 1: below 5% growth control rate
# Description: as §1
# [3] = tested on: foxtail; experiment: as above; parameters: key: Level 10: completely dead; Level 9: above 95% growth control rate; Level 8: above 90% growth control rate; Level 7: above 80% growth control rate; Level 6: above 70% growth control rate; Level 5: above 60% growth control rate; Level 4: above 50% growth control rate; Level 3: above 20% growth control rate; Level 2: 5%-20% growth control rate; Level 1: below 5% growth control rate
# Description: as §1
# [4] = tested on: bidens bipinnata; experiment: as above; parameters: key: Level 10: completely dead; Level 9: above 95% growth control rate; Level 8: above 90% growth control rate; Level 7: above 80% growth control rate; Level 6: above 70% growth control rate; Level 5: above 60% growth control rate; Level 4: above 50% growth control rate; Level 3: above 20% growth control rate; Level 2: 5%-20% growth control rate; Level 1: below 5% growth control rate
# Description: as §1
# [5] = tested on: rorippa indica; experiment: as above; parameters: key: Level 10: completely dead; Level 9: above 95% growth control rate; Level 8: above 90% growth control rate; Level 7: above 80% growth control rate; Level 6: above 70% growth control rate; Level 5: above 60% growth control rate; Level 4: above 50% growth control rate; Level 3: above 20% growth control rate; Level 2: 5%-20% growth control rate; Level 1: below 5% growth control rate
# Description: as §1
# [6] = tested on: echinochloa; experiment: as above; parameters: key: Level 10: completely dead; Level 9: above 95% growth control rate; Level 8: above 90% growth control rate; Level 7: above 80% growth control rate; Level 6: above 70% growth control rate; Level 5: above 60% growth control rate; Level 4: above 50% growth control rate; Level 3: above 20% growth control rate; Level 2: 5%-20% growth control rate; Level 1: below 5% growth control rate
# Description: as §1
# [7] = tested on: rice; experiment: post-emergence stage experiment, crop (Table 1)
# Description: as §1
# [8] = tested on: wheat; experiment: post-emergence stage experiment, crop (Table 1)
# Description: as §1
# [9] = tested on: corn; experiment: post-emergence stage experiment, crop (Table 1)
# Description: as §1
SMILES,"weed control effect, Crab grass (level) [1]","weed control effect, Indian mallow (level) [2]","weed control effect, Green foxtail (level) [3]","weed control effect, Bidens bipinnata (level) [4]","weed control effect, Rorippa indica (level) [5]","weed control effect, Echinochloa (level) [6]","effect on crop, Rice (level) [7]","effect on crop, Wheat (level) [8]","effect on crop, Corn (level) [9]"
Cn1ncc(C(=O)c2ccc(C(F)(F)F)c(N3CCCC3=O)c2Cl)c1O [Compound 014],10,7 (Level 7: above 80% growth control rate),10,8 (Level 8: above 90% growth control rate),10,5 (Level 5: above 60% growth control rate),3 (Level 3: above 20% growth control rate),3 (Level 3: above 20% growth control rate),8 (Level 8: above 90% growth control rate)
CCOc1c(C(=O)Oc2c(C(=O)c3ccc(C(F)(F)F)c(N4CCCC4=O)c3Cl)cnn2C)cnn1C [Compound 015],9 (Level 9: above 95% growth control rate),8 (Level 8: above 90% growth control rate),10,8 (Level 8: above 90% growth control rate),9 (Level 9: above 95% growth control rate),5 (Level 5: above 60% growth control rate),2 (Level 2: 5%-20% growth control rate),2 (Level 2: 5%-20% growth control rate),9 (Level 9: above 95% growth control rate)
Cc1nn(C)cc1C(=O)Oc1c(C(=O)c2ccc(C(F)(F)F)c(N3CCCC3=O)c2Cl)cnn1C [Compound 016],10,10,10,5 (Level 5: above 60% growth control rate),10,10,4 (Level 4: above 50% growth control rate),3 (Level 3: above 20% growth control rate),3 (Level 3: above 20% growth control rate)
Cn1ncc(C(=O)c2ccc(C(F)(F)F)c(N3CCCCC3=O)c2Cl)c1O [Compound 029],7 (Level 7: above 80% growth control rate),7 (Level 7: above 80% growth control rate),9 (Level 9: above 95% growth control rate),7 (Level 7: above 80% growth control rate),7 (Level 7: above 80% growth control rate),5 (Level 5: above 60% growth control rate),1 (Level 1: below 5% growth control rate),3 (Level 3: above 20% growth control rate),7 (Level 7: above 80% growth control rate)
CC(=O)Oc1c(C(=O)c2ccc(C(F)(F)F)c(N3CCCCC3=O)c2Cl)cnn1C [Compound 030],8 (Level 8: above 90% growth control rate),6 (Level 6: above 70% growth control rate),9 (Level 9: above 95% growth control rate),5 (Level 5: above 60% growth control rate),10,5 (Level 5: above 60% growth control rate),1 (Level 1: below 5% growth control rate),4 (Level 4: above 50% growth control rate),9 (Level 9: above 95% growth control rate)
CCS(=O)(=O)Oc1c(C(=O)c2ccc(C(F)(F)F)c(N3CCCCC3=O)c2Cl)cnn1C [Compound 031],9 (Level 9: above 95% growth control rate),7 (Level 7: above 80% growth control rate),10,6 (Level 6: above 70% growth control rate),8 (Level 8: above 90% growth control rate),5 (Level 5: above 60% growth control rate),1 (Level 1: below 5% growth control rate),3 (Level 3: above 20% growth control rate),9 (Level 9: above 95% growth control rate)
CCOc1c(C(=O)Oc2c(C(=O)c3ccc(C(F)(F)F)c(N4CCCCC4=O)c3Cl)cnn2C)cnn1C [Compound 032],10,10,10,6 (Level 6: above 70% growth control rate),10,9 (Level 9: above 95% growth control rate),8 (Level 8: above 90% growth control rate),1 (Level 1: below 5% growth control rate),4 (Level 4: above 50% growth control rate)
Cc1nn(C)c(OC(=O)c2cnn(C)c2)c1C(=O)c1ccc(C(F)(F)F)c(N2CCCCC2=O)c1Cl [Compound 039],9 (Level 9: above 95% growth control rate),10,10,2 (Level 2: 5%-20% growth control rate),10,10,6 (Level 6: above 70% growth control rate),,2 (Level 2: 5%-20% growth control rate)
Cc1cnn(-c2c(C(F)(F)F)ccc(C(=O)c3cnn(C)c3OC(=O)c3cnn(C)c3)c2Cl)c1 [Compound 083],6 (Level 6: above 70% growth control rate),10,8 (Level 8: above 90% growth control rate),5 (Level 5: above 60% growth control rate),,6 (Level 6: above 70% growth control rate),2 (Level 2: 5%-20% growth control rate),0,4 (Level 4: above 50% growth control rate)
Cc1cnn(-c2c(C(F)(F)F)ccc(C(=O)c3c(C)nn(C)c3OC(=O)c3cnn(C)c3)c2Cl)c1 [Compound 087],9 (Level 9: above 95% growth control rate),10,10,5 (Level 5: above 60% growth control rate),,6 (Level 6: above 70% growth control rate),6 (Level 6: above 70% growth control rate),0,4 (Level 4: above 50% growth control rate)
Cc1cnn(-c2c(C(F)(F)F)ccc(C(=O)c3c(C4CC4)nn(C)c3OC(=O)c3cnn(C)c3)c2Cl)c1 [Compound 091],2 (Level 2: 5%-20% growth control rate),10,7 (Level 7: above 80% growth control rate),5 (Level 5: above 60% growth control rate),,6 (Level 6: above 70% growth control rate),6 (Level 6: above 70% growth control rate),1 (Level 1: below 5% growth control rate),1 (Level 1: below 5% growth control rate)
